Reference: patent US6825173B2, “Preparation of fagopyritols and uses therefor” (Cornell Research Foundation, Inc., priority 1997, dated 2004)

How the values were obtained:
human fecal microflora = experiment: In vitro fermentation of fagopyritol-enriched buckwheat extract by human fecal microflora; format: in vitro ADME; settings: 40° C.; for concentration of inositols and fagopyritols: anaerobic
Method: Fermentation tests were done with fagopyritol-enriched Birkett Mills buckwheat extract that had previously been treated with dry granular baking yeast. Yeast cells were removed by centrifugation (10 minutes at 19K rpm using a Sorvall refrigerated centrifuge) and ultrafiltration (Amicon filtration device, 10, 000 MW cut-off). The fagopyritol water extract was boiled under carbon dioxide to sterilize and remove all other gases.
Anaerobic conditions were maintained during the preparation of fecal inoculum and of all samples by working under streams of carbon dioxide gas. Fermentation bottles were sealed with rubber stoppers and metal caps.
Fagopyritol substrate was prepared first. Then, 1 ml was placed in all bottles except blanks (duplicate samples plus one control and one blank done for 0, 6, 12, and 24 hours). Next, the nutritive medium was prepared. Control bottles received 1 ml of the medium in place of inoculum. The remaining medium was used to dilute fresh feces 1:12, w/v, prepared as described in Barry et al., “In Vitro Fermentation of Neutral Monosaccharides by Ruminal and Human Fecal Microflora,” Acta Vet Scand, 86 (supplement): 93-95 (1989) and Guillon et al., “Characterization of Residual Fibers from Fermentation of Pea and Apple Fibres by Human Fecal Bacteria,” J. Sci. Food Agric., 68:521-529 (1995), which are hereby incorporated by reference. All samples and blanks were inoculated with 1 ml of fecal inoculum by syringe through the rubber stoppers.
A 40° C. water bath was used for the fermentation which was stopped at the specified times by opening bottles to air and immediately freezing.
The samples were prepared for GC analysis after thawing by centrifuging (microfuge, 8000 rpm) once and then again in 10,000 MW cut-off microfuge tubes. The salts present in those samples containing nutritive medium were removed by passing each sample through Amberlite mixed-bed resin, because salts interfere with TMS-derivitization. Two control samples of the original extract were also passed through the resin to insure that fagopyritols were not removed by the treatment.
A small volume of each (750 μL) was dried with 100 μg of internal standard (phenyl α-D-glucopyranoside) in silyation vials under a stream of nitrogen gas; vials were then placed in a desiccator over P205 overnight.
Trimethylsilyl derivitives were prepared by adding 100 μL of 1:1 pyridine:TMS solution and heating at 70° C. for 30 minutes.
Finally, derivitized samples were analyzed on the GC (HP 5890 Series II; DB-1 column; 0.25 mm i.d., 15 m length, 0.25 μm film thickness).

[1] = target: T1, green coffee bean α-D-galactosidase (EC 3.2.1.22) (Coffea arabica, UniProt Q42656); experiment: Enzymatic hydrolysis with α-galactosidase; format: biochemical; settings: for hydrolysis by α-galactosidase (in words): 1.25 units desalted enzyme in 200 μL water at 22° C. (Examples 22, 23), products by GC
T1 construct: desalted green coffee bean α-D-galactosidase (EC 3.2.1.22); purchased Boehringer Mannheim Corporation, Indianapolis, Ind; host or cells: green coffee bean
Method: Enzymatic Digestion. One ml of green coffee bean α-galactosidase (EC 3.2.1.22) (Boehringer Mannheim Corporation, Indianapolis, Ind.) in 3.2 M ammonium sulfate was dialyzed overnight against 1000 ml of distilled water to remove the ammonium sulfate that interferes with the silylation reaction and causes variable results. […] After 24 h, 0.2 ml of absolute ethanol and 100 μg of internal standard were added. The mixture was heated to 90° C. for 5 min to inactivate the enzyme and centrifuged through a 10,000 Mr cutoff filter. The filtrate was evaporated to dryness in a stream of nitrogen gas, silylated, and analyzed by gas chromatography as above.
(§1) Acid and Enzymic Hydrolysis. […] Enzyme protein was removed by filtration (10,000 MW cut-off filter), samples were dried, and products assayed by GC analysis of trimethylsilyl derivatives. Raffinose and lactose (100 μg) were hydrolyzed only by α- or β-D-galactosidase respectively, confirming that both enzymes were active.
as §1, with “hydrolyzed” for “hydrolyzed only”

[2] = system: bovine liver β-D-galactosidase (EC 3.2.1.23); experiment: Enzymatic hydrolysis with β-galactosidase; format: biochemical; settings: for hydrolysis by β-galactosidase (in words): 0.5 units in 200 μL water at 37° C. for 24 h, products by GC
Method: as §1
as §1, with “hydrolyzed” for “hydrolyzed only”

[3] = Controls (nutritive medium in place of fecal inoculum), 0 hrs
[4] = Controls (nutritive medium in place of fecal inoculum), 6 hrs
[5] = Controls (nutritive medium in place of fecal inoculum), 12 hrs
[6] = Samples with human fecal inoculum, 0 hrs
[7] = Samples with human fecal inoculum, 6 hrs
[8] = Samples with human fecal inoculum, 12 hrs

T1 sequence (Q42656 16-378): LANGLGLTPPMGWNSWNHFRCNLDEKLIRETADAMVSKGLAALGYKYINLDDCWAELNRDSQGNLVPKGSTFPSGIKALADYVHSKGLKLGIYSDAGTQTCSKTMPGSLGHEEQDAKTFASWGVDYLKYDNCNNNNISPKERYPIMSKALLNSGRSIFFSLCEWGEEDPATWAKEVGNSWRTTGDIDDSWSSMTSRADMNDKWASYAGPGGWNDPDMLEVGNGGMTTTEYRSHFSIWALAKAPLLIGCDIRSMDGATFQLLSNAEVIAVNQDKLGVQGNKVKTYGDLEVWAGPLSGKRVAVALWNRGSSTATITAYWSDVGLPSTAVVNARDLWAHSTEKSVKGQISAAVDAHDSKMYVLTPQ

Row | Compound | concentration of inositols and fagopyritols (human fecal microflora; [3]) | concentration of inositols and fagopyritols (human fecal microflora; [4]) | concentration of inositols and fagopyritols (human fecal microflora; [5]) | concentration of inositols and fagopyritols (human fecal microflora; [6]) | concentration of inositols and fagopyritols (human fecal microflora; [7]) | concentration of inositols and fagopyritols (human fecal microflora; [8]) | hydrolysis by α-galactosidase (in words) [1] | Enzymic hydrolysis by α-D-galactosidase ([1]; Fagopyritol A and B Series) | hydrolysis by β-galactosidase (in words) [2] | Enzymic hydrolysis by β-D-galactosidase ([2]; Fagopyritol A and B Series) | metabolism by fecal bacteria (in words) (human fecal microflora; fermentation of fagopyritol-enriched extract) | Enzymic hydrolysis by α-D-galactosidase ([1]; Galactinol Series) | Enzymic hydrolysis by β-D-galactosidase ([2]; Galactinol Series)
1 | OCC1O[C@H](OC2C(O)[C@H](O)C(O)C(O)[C@@H]2O)C(O)C(O)[C@H]1O (stereo partly drawn) [Fagopyritol B1, O-α-D-galactopyranosyl-(1→2)-D-chiro-inositol] | 667 µg/750 µL | 636 µg/750 µL | 605 µg/750 µL | 591 µg/750 µL | 0 µg/750 µL | 0 µg/750 µL | hydrolyzed | yes | not by β-D-galactosidase | no | – | – | –
2 | OC[C@H]1O[C@H](O[C@H]2O[C@H](CO)[C@@H](O)[C@H](O)[C@H]2O)[C@H](O)[C@@H](O)[C@@H]1O [trehalose, O-α-D-glucopyranosyl-(1-1′)-O-α-D-glucoside] | – | – | – | – | – | – | – | – | – | – | metabolized | – | –
3 | O-α-D-galactopyranosyl-(1→6)-O-α-D-galactopyranosyl-(1→6)-O-α-D-galactopyranosyl-(1→2)-D-chiro-inositol [Fagopyritol B3] | – | – | – | – | – | – | completely hydrolyzed | yes | – | – | – | – | –
4 | O-α-D-galactopyranosyl-(1→6)-O-α-D-galactopyranosyl-(1→6)-O-α-D-galactopyranosyl-(1→3)-D-chiro-inositol [Fagopyritol A3] | 21 µg/750 µL | 20 µg/750 µL | 26 µg/750 µL | 48 µg/750 µL | 0 µg/750 µL | 0 µg/750 µL | hydrolyzed | yes | not by P-D-galactosidase | no | – | – | –
5 | OC[C@H]1O[C@H](OC[C@H]2O[C@H](O[C@]3(CO)O[C@H](CO)[C@@H](O)[C@@H]3O)[C@H](O)[C@@H](O)[C@@H]2O)[C@H](O)[C@@H](O)[C@H]1O [Raffinose, O-α-D-galactopyranosyl-(1→6)-α-D-glucopyranosyl-(1→2)-β-D-fructofuranoside, reference compound] | – | – | – | – | – | – | hydrolyzed | – | – | – | – | – | –
6 | OC1C(O)C(O)C(O)C(O)C1O [D-chiro-inositol] | 99 µg/750 µL | 102 µg/750 µL | 58 µg/750 µL | 47 µg/750 µL | 0 µg/750 µL | 0 µg/750 µL | – | – | – | – | – | – | –
7 | OCC1O[C@@H](O[C@H]2C(O)C(O)[C@H](O)C(O)C2O)C(O)C(O)[C@H]1O (stereo partly drawn) [Fagopyritol A1, O-α-D-galactopyranosyl-(1→3)-D-chiro-inositol] | 88 µg/750 µL | 87 µg/750 µL | 94 µg/750 µL | 106 µg/750 µL | 0 µg/750 µL | 0 µg/750 µL | hydrolyzed | yes | not by β-D-galactosidase | no | – | – | –
8 | OC[C@H]1O[C@H](OC[C@H]2O[C@H](O[C@@H]3[C@@H](O)[C@H](O)[C@@H](O)[C@H](O)[C@@H]3O)[C@H](O)[C@@H](O)[C@H]2O)[C@H](O)[C@@H](O)[C@H]1O [digalactosyl myo-inositol, O-α-D-galactopyranosyl-(1→6)-O-α-D-galactopyranosyl-(1→3)-D-myo-inositol] | – | – | – | – | – | – | completely hydrolyzed | – | not by β-galactosidase | – | – | – | –
9 | OC[C@H]1O[C@@H](O[C@H]2[C@H](O)[C@@H](O)C(O)O[C@@H]2CO)[C@H](O)[C@@H](O)[C@H]1O (stereo partly drawn) [lactose, reference compound] | – | – | – | – | – | – | – | – | hydrolyzed | – | – | – | –
10 | OC[C@H]1O[C@H](OC2[C@@H](O)[C@H](O)C(O)[C@H](O)[C@@H]2O)[C@H](O)[C@@H](O)[C@H]1O (stereo partly drawn) [Galactinol (gt1)] | – | – | – | – | – | – | – | – | – | – | – | yes | no
11 | OCC1O[C@H](OCC2O[C@@H](O[C@H]3C(O)C(O)[C@H](O)C(O)C3O)C(O)C(O)[C@H]2O)C(O)C(O)[C@H]1O (stereo partly drawn) [Fagopyritol A2, O-α-D-galactopyranosyl-(1→6)-O-α-D-galactopyranosyl-(1→3)-D-chiro-inositol] | 56 µg/750 µL | 54 µg/750 µL | 59 µg/750 µL | 54 µg/750 µL | 0 µg/750 µL | 0 µg/750 µL | hydrolyzed | yes | not by P-D-galactosidase | no | – | – | –
12 | OCC1OC(OCC2OC(OCC3OC(OC4C(O)C(O)C(O)C(O)C4O)C(O)C(O)C3O)C(O)C(O)C2O)C(O)C(O)C1O [TGMI, O-α-D-galactopyranosyl-(1→6)-O-α-D-galactopyranosyl-(1→6)-O-α-D-galactopyranosyl-(1→3)-D-myo-inositol] | – | – | – | – | – | – | completely hydrolyzed | – | – | – | – | – | –
13 | O[C@H]1[C@H](O)[C@@H](O)[C@H](O)[C@@H](O)[C@H]1O [myo-inositol] | 45 µg/750 µL | 48 µg/750 µL | 26 µg/750 µL | 20 µg/750 µL | 0 µg/750 µL | 0 µg/750 µL | – | – | – | – | – | – | –
14 | OCC1O[C@H](OCC2O[C@H](OC3C(O)[C@H](O)C(O)C(O)[C@@H]3O)C(O)C(O)[C@H]2O)C(O)C(O)[C@H]1O (stereo partly drawn) [Fagopyritol B2, O-α-D-galactopyranosyl-(1→6)-O-α-D-galactopyranosyl-(1→2)-D-chiro-inositol] | 83 µg/750 µL | 72 µg/750 µL | 66 µg/750 µL | 65 µg/750 µL | 0 µg/750 µL | 0 µg/750 µL | hydrolyzed | yes | not by P-D-galactosidase | no | – | – | –
